Data on twelve compounds can be found in ChEMBL document CHEMBL4359866, “A computer-assisted discovery of novel potential anti-obesity compounds as selective carbonic anhydrase VA inhibitors” (Eur J Med Chem, 2019).

pKi: −log10 of the molar value. Where only a bound is given, the exact number is not on record here.

One test concerns the target Carbonic anhydrase 1 (Homo sapiens, UniProt P00915). Nature of the test: Inhibition of recombinant human carbonic anhydrase 1 preincubated with enzyme for 15 mins by phenol red dye based stopped flow CO2 hydration assay.
The next test deals with Carbonic anhydrase 2 (Homo sapiens, UniProt P00918). In words: Inhibition of recombinant human carbonic anhydrase 2 preincubated with enzyme for 15 mins by phenol red dye based stopped flow CO2 hydration assay.
Test [1] concerns the target Carbonic anhydrase 5A, mitochondrial (Homo sapiens, UniProt P35218). Nature of the test: Inhibition of recombinant human carbonic anhydrase VA preincubated with enzyme for 15 mins by phenol red dye based stopped flow CO2 hydration assay.

A word on the pKi: it is −log10 of the Ki, conventionally taken in molar units.

Sequence of Carbonic anhydrase 5A, mitochondrial (P35218 whole entry): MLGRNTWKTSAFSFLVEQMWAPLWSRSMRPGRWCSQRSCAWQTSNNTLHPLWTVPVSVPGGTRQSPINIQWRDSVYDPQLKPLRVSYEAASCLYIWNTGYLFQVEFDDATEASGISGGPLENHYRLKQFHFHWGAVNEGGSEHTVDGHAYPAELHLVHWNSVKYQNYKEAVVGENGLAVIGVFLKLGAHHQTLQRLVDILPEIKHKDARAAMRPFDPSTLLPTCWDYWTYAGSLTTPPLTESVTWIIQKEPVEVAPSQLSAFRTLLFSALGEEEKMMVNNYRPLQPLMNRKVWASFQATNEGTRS
Sequence of Carbonic anhydrase 1 (P00915 whole entry): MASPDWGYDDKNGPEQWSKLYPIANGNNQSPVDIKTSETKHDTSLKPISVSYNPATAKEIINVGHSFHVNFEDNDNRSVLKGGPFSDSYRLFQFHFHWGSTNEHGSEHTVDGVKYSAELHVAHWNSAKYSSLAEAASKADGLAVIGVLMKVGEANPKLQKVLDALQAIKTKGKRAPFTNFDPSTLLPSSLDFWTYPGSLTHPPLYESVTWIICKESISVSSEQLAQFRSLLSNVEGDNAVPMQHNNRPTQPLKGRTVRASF

`O=C(COc1ccc2c3c(c(=O)oc2c1)CCC3)c1ccc(Cl)cc1`: the pKi (on Carbonic anhydrase 1; on Carbonic anhydrase 2; in test [1]) was less than 5.00 throughout.

On to `Nc1nc(F)nc2c1ncn2[C@@H]1O[C@H](COP(=O)(O)O)[C@@H](O)[C@@H]1O` [FLUDARABINE PHOSPHATE], for which the pKi on Carbonic anhydrase 1 was less than 5.00; at Carbonic anhydrase 2, less than 5.00; in test [1], 6.88.

Regarding `Nc1nc(=O)c2nc(CNc3ccc(C(=O)N[C@H](CCC(=O)O)C(=O)O)cc3)cnc2[nH]1`, the pKi at Carbonic anhydrase 1 was less than 5.00; on Carbonic anhydrase 2 it was less than 5.00; in test [1], 5.01.

On to `COc1cc(CC(=O)O)ccc1OS(=O)(=O)O`, for which the pKi on Carbonic anhydrase 1 and on Carbonic anhydrase 2 was less than 5.00 in each case.

On to `COc1cc2nccc(Oc3ccc(NC(=O)NC4CC4)c(Cl)c3)c2cc1C(N)=O` [LENVATINIB], for which the values for the pKi (on Carbonic anhydrase 1; on Carbonic anhydrase 2; in test [1]) were less than 5.00, less than 5.00 and 6.88, respectively.

For the compound `O=c1[nH]nc(SCc2ccc(Cl)cc2Cl)c(=O)[nH]1`, the pKi at Carbonic anhydrase 1 and on Carbonic anhydrase 2 was less than 5.00 in each case.

As for `O=C(CCNc1n[nH]c(=O)[nH]c1=O)N/N=C\c1c(F)cccc1Cl`, the pKi on Carbonic anhydrase 1 and on Carbonic anhydrase 2 was less than 5.00 each time.

For the compound `Nc1ccc2c(n1)[nH]c1ccccc12`, the pKi on Carbonic anhydrase 1 and at Carbonic anhydrase 2 was less than 5.00 in each case.

In the case of `O=C(Cc1nnc(O)nc1O)N/N=C/c1c(O)ccc2ccccc12`, the figures for the negative-log Ki (pKi) (at Carbonic anhydrase 1; on Carbonic anhydrase 2; in test [1]) were less than 5.00, less than 5.00 and 5.06, respectively.

In the case of `CC(=O)c1cc(O)cc(O)c1`, the pKi at Carbonic anhydrase 1 and on Carbonic anhydrase 2 was less than 5.00 throughout.

With `O=C(CSc1ccncc1)N[C@@H]1C(=O)N2C(C(=O)O)=C(CO)CS[C@H]12`, the pKi at Carbonic anhydrase 1 and at Carbonic anhydrase 2 was less than 5.00 each time.

For `NC(=O)c1cn(Cc2c(F)cccc2F)nn1` [RUFINAMIDE], the pKi on Carbonic anhydrase 1 was less than 5.00; at Carbonic anhydrase 2, less than 5.00; in test [1] it was 6.46.
